Laboratory results from the CheMixHub viscosity set.

Assay: xn = mol fraction of the nth substance listed

COCCOC + O
Conditions	viscosity [mPa·s]
298 K, 101 kPa, x2 = 0.222	0.5134
298 K, 101 kPa, x2 = 0.353	0.6057
298 K, 101 kPa, x2 = 0.3777	0.6324
298 K, 101 kPa, x2 = 0.4685	0.7626
298 K, 101 kPa, x2 = 0.5569	0.943
298 K, 101 kPa, x2 = 0.711	1.481
298 K, 101.3 kPa, x1 = 0.019	1.166
298 K, 101.3 kPa, x1 = 0.0608	1.748
298 K, 101.3 kPa, x1 = 0.1011	2.092
298 K, 101.3 kPa, x1 = 0.1521	2.104
298 K, 101.3 kPa, x1 = 0.1999	1.935
298 K, 101.3 kPa, x1 = 0.2992	1.432
298 K, 101.3 kPa, x1 = 0.4048	1.074
298 K, 101.3 kPa, x1 = 0.597	0.684
298 K, 101.3 kPa, x1 = 0.801	0.506
298.15 K, 101.33 kPa, x1 = 0.007	1.018
298.15 K, 101.33 kPa, x1 = 0.0184	1.189
298.15 K, 101.33 kPa, x1 = 0.0306	1.376
298.15 K, 101.33 kPa, x1 = 0.0542	1.712
298.15 K, 101.33 kPa, x1 = 0.0775	1.968
298.15 K, 101.33 kPa, x1 = 0.1063	2.146
298.15 K, 101.33 kPa, x1 = 0.1301	2.252
298.15 K, 101.33 kPa, x1 = 0.1654	2.164
298.15 K, 101.33 kPa, x1 = 0.2002	2.001
298.15 K, 101.33 kPa, x1 = 0.2402	1.782
298.15 K, 101.33 kPa, x1 = 0.2886	1.55
298.15 K, 101.33 kPa, x1 = 0.3482	1.256
298.15 K, 101.33 kPa, x1 = 0.3836	1.128
298.15 K, 101.33 kPa, x1 = 0.4226	1.005
298.15 K, 101.33 kPa, x1 = 0.4689	0.886
298.15 K, 101.33 kPa, x1 = 0.5203	0.78
298.15 K, 101.33 kPa, x1 = 0.5617	0.707
298.15 K, 101.33 kPa, x1 = 0.613	0.638
298.15 K, 101.33 kPa, x1 = 0.6418	0.605
298.15 K, 101.33 kPa, x1 = 0.6575	0.586
298.15 K, 101.33 kPa, x1 = 0.7264	0.536
298.15 K, 101.33 kPa, x1 = 0.8227	0.491
298.15 K, 101.33 kPa, x1 = 0.8646	0.471
298.15 K, 101.33 kPa, x1 = 0.9633	0.433
303.15 K, 101 kPa, x1 = 0.0471	1.344
303.15 K, 101 kPa, x1 = 0.0951	1.725
303.15 K, 101 kPa, x1 = 0.1421	1.837
303.15 K, 101 kPa, x1 = 0.1877	1.726
303.15 K, 101 kPa, x1 = 0.2322	1.562
303.15 K, 101 kPa, x1 = 0.277	1.373
303.15 K, 101 kPa, x1 = 0.3598	1.093
303.15 K, 101 kPa, x1 = 0.4455	0.8759
303.15 K, 101 kPa, x1 = 0.5389	0.7129
303.15 K, 101 kPa, x1 = 0.6952	0.5462
303.15 K, 101 kPa, x1 = 0.803	0.4759
303.15 K, 101 kPa, x1 = 0.9001	0.4317
308.15 K, 101 kPa, x1 = 0.0471	1.174
308.15 K, 101 kPa, x1 = 0.0951	1.487
308.15 K, 101 kPa, x1 = 0.1421	1.583
308.15 K, 101 kPa, x1 = 0.1877	1.493
308.15 K, 101 kPa, x1 = 0.2322	1.375
308.15 K, 101 kPa, x1 = 0.277	1.214
308.15 K, 101 kPa, x1 = 0.3598	0.98
308.15 K, 101 kPa, x1 = 0.4455	0.7944
308.15 K, 101 kPa, x1 = 0.5389	0.6553
308.15 K, 101 kPa, x1 = 0.6952	0.5103
308.15 K, 101 kPa, x1 = 0.803	0.448
308.15 K, 101 kPa, x1 = 0.9001	0.4079
313.15 K, 101 kPa, x1 = 0.0471	1.035
313.15 K, 101 kPa, x1 = 0.0951	1.302
313.15 K, 101 kPa, x1 = 0.1421	1.377
313.15 K, 101 kPa, x1 = 0.1877	1.308
313.15 K, 101 kPa, x1 = 0.2322	1.211
313.15 K, 101 kPa, x1 = 0.277	1.081
313.15 K, 101 kPa, x1 = 0.3598	0.886
313.15 K, 101 kPa, x1 = 0.4455	0.7267
313.15 K, 101 kPa, x1 = 0.5389	0.6061
313.15 K, 101 kPa, x1 = 0.6952	0.4784
313.15 K, 101 kPa, x1 = 0.803	0.4217
313.15 K, 101 kPa, x1 = 0.9001	0.3865
318.15 K, 101 kPa, x1 = 0.0471	0.9228
318.15 K, 101 kPa, x1 = 0.0951	1.143
318.15 K, 101 kPa, x1 = 0.1421	1.208
318.15 K, 101 kPa, x1 = 0.1877	1.157
318.15 K, 101 kPa, x1 = 0.2322	1.07
318.15 K, 101 kPa, x1 = 0.277	0.9692
318.15 K, 101 kPa, x1 = 0.3598	0.8048
318.15 K, 101 kPa, x1 = 0.4455	0.6672
318.15 K, 101 kPa, x1 = 0.5389	0.5616
318.15 K, 101 kPa, x1 = 0.6952	0.4497
318.15 K, 101 kPa, x1 = 0.803	0.3986
318.15 K, 101 kPa, x1 = 0.9001	0.367
323.15 K, 101 kPa, x1 = 0.0471	0.8291
323.15 K, 101 kPa, x1 = 0.0951	1.013
323.15 K, 101 kPa, x1 = 0.1421	1.07
323.15 K, 101 kPa, x1 = 0.1877	1.034
323.15 K, 101 kPa, x1 = 0.2322	0.9565
323.15 K, 101 kPa, x1 = 0.277	0.8719
323.15 K, 101 kPa, x1 = 0.3598	0.7336
323.15 K, 101 kPa, x1 = 0.4455	0.6155
323.15 K, 101 kPa, x1 = 0.5389	0.5232
323.15 K, 101 kPa, x1 = 0.6952	0.4226
323.15 K, 101 kPa, x1 = 0.803	0.3769
323.15 K, 101 kPa, x1 = 0.9001	0.3479
